#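 Results reflect a 48-hour exposure of cells in 96-well plates to compound at five concentrations. GI50 is the concentration that inhibits growth by half. TGI is the concentration that stops growth completely.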
# Columns and labels:
# Test in all cases: NCI anticancer screen, dose series, 48 h
# HS 578T breast = test system: HS 578T breast
# MALME-3M melanoma = test system: MALME-3M melanoma
# SK-OV-3 ovarian = test system: SK-OV-3 ovarian
# UO-31 renal = test system: UO-31 renal
# M14 melanoma = test system: M14 melanoma
# PC-3 prostate = test system: PC-3 prostate
# OVCAR-8 ovarian = test system: OVCAR-8 ovarian
# OVCAR-4 ovarian = test system: OVCAR-4 ovarian
# CCRF-CEM leukemia = test system: CCRF-CEM leukemia
# SK-MEL-5 melanoma = test system: SK-MEL-5 melanoma
# A549 NSCLC = test system: A549 NSCLC
# SK-MEL-28 melanoma = test system: SK-MEL-28 melanoma
# RXF 393 renal = test system: RXF 393 renal
# SW-620 colon = test system: SW-620 colon
# RPMI-8226 leukemia = test system: RPMI-8226 leukemia
# HCT-116 colon = test system: HCT-116 colon
# K-562 leukemia = test system: K-562 leukemia
# TK-10 renal = test system: TK-10 renal
# T-47D breast = test system: T-47D breast
# NCI/ADR-RES ovarian = test system: NCI/ADR-RES ovarian
# SR leukemia = test system: SR leukemia
# SNB-19 CNS = test system: SNB-19 CNS
# MOLT-4 leukemia = test system: MOLT-4 leukemia
# SF-295 CNS = test system: SF-295 CNS
# HOP-92 NSCLC = test system: HOP-92 NSCLC
# IGROV1 ovarian = test system: IGROV1 ovarian
# OVCAR-5 ovarian = test system: OVCAR-5 ovarian
# KM12 colon = test system: KM12 colon
# SF-268 CNS = test system: SF-268 CNS
# COLO 205 colon = test system: COLO 205 colon
# NCI-H23 lung = test system: NCI-H23 lung
# SNB-75 CNS = test system: SNB-75 CNS
# DU-145 prostate = test system: DU-145 prostate
# EKVX NSCLC = test system: EKVX NSCLC
# U251 CNS = test system: U251 CNS
# CAKI-1 renal = test system: CAKI-1 renal
# HL-60(TB) leukemia = test system: HL-60(TB) leukemia
# NCI-H226 lung = test system: NCI-H226 lung
# MDA-MB-435 = test system: MDA-MB-435
# OVCAR-3 ovarian = test system: OVCAR-3 ovarian
# HOP-62 NSCLC = test system: HOP-62 NSCLC
# LOX IMVI melanoma = test system: LOX IMVI melanoma
# SF-539 CNS = test system: SF-539 CNS
# UACC-62 melanoma = test system: UACC-62 melanoma
# HCT-15 colon = test system: HCT-15 colon
# MDA-MB-231 breast = test system: MDA-MB-231 breast
# NCI-H522 lung = test system: NCI-H522 lung
# ACHN renal = test system: ACHN renal
# SK-MEL-2 melanoma = test system: SK-MEL-2 melanoma
# NCI-H460 lung = test system: NCI-H460 lung
# MCF7 breast = test system: MCF7 breast
# UACC-257 melanoma = test system: UACC-257 melanoma
# BT-549 breast = test system: BT-549 breast
# 786-0 renal = test system: 786-0 renal
# SN12C renal = test system: SN12C renal
# HT29 colon = test system: HT29 colon
# HCC-2998 colon = test system: HCC-2998 colon
# A498 renal = test system: A498 renal
smiles,measurement,setting,value
COc1cc(OC)c(OC)cc1/C=C\c1nccc2ccccc12,TGI,HS 578T breast,94.3 µM
same,TGI,MALME-3M melanoma,> 100 µM
same,TGI,SK-OV-3 ovarian,> 100 µM
same,TGI,UO-31 renal,64.1 µM
same,TGI,M14 melanoma,31.1 µM
same,TGI,PC-3 prostate,60.2 µM
same,TGI,OVCAR-8 ovarian,78.9 µM
same,TGI,OVCAR-4 ovarian,> 100 µM
same,TGI,CCRF-CEM leukemia,> 100 µM
same,TGI,SK-MEL-5 melanoma,29.5 µM
same,TGI,A549 NSCLC,> 100 µM
same,TGI,SK-MEL-28 melanoma,74.7 µM
same,TGI,RXF 393 renal,39 µM
same,TGI,SW-620 colon,83.4 µM
same,TGI,RPMI-8226 leukemia,59.2 µM
same,TGI,HCT-116 colon,33.4 µM
same,TGI,K-562 leukemia,> 100 µM
same,TGI,TK-10 renal,88.9 µM
same,TGI,T-47D breast,80.4 µM
same,TGI,NCI/ADR-RES ovarian,> 100 µM
same,TGI,SR leukemia,> 100 µM
same,TGI,SNB-19 CNS,61.4 µM
same,TGI,MOLT-4 leukemia,95.8 µM
same,TGI,SF-295 CNS,56.1 µM
same,TGI,HOP-92 NSCLC,32.9 µM
same,TGI,IGROV1 ovarian,87 µM
same,TGI,OVCAR-5 ovarian,98.3 µM
same,TGI,KM12 colon,33.5 µM
same,TGI,SF-268 CNS,58.8 µM
same,TGI,COLO 205 colon,38 µM
same,TGI,NCI-H23 lung,51.7 µM
same,TGI,SNB-75 CNS,50.6 µM
same,TGI,DU-145 prostate,34.4 µM
same,TGI,EKVX NSCLC,89.7 µM
same,TGI,U251 CNS,65.5 µM
same,TGI,CAKI-1 renal,68.3 µM
same,TGI,HL-60(TB) leukemia,73.2 µM
O=S(=O)(NCC1CCC(CNc2ccc(Cl)cc2)CC1)c1ccc(-c2ccccc2)cc1 (stereo not given),GI50,HS 578T breast,12.7 µM
same,TGI,HS 578T breast,> 50 µM
same,GI50,NCI-H226 lung,21.2 µM
same,TGI,NCI-H226 lung,> 50 µM
same,GI50,SK-OV-3 ovarian,> 50 µM
same,TGI,SK-OV-3 ovarian,> 50 µM
same,GI50,UO-31 renal,> 50 µM
same,TGI,UO-31 renal,> 50 µM
same,GI50,MDA-MB-435,> 50 µM
same,TGI,MDA-MB-435,> 50 µM
same,GI50,OVCAR-3 ovarian,10.7 µM
same,TGI,OVCAR-3 ovarian,> 50 µM
same,GI50,M14 melanoma,> 50 µM
same,TGI,M14 melanoma,> 50 µM
same,GI50,PC-3 prostate,40.9 µM
same,TGI,PC-3 prostate,> 50 µM
same,GI50,OVCAR-8 ovarian,41.4 µM
same,TGI,OVCAR-8 ovarian,> 50 µM
same,GI50,OVCAR-4 ovarian,> 50 µM
same,TGI,OVCAR-4 ovarian,> 50 µM
same,GI50,HOP-62 NSCLC,> 50 µM
same,TGI,HOP-62 NSCLC,> 50 µM
same,GI50,LOX IMVI melanoma,45.7 µM
same,TGI,LOX IMVI melanoma,> 50 µM
same,GI50,CCRF-CEM leukemia,> 50 µM
same,TGI,CCRF-CEM leukemia,> 50 µM
same,GI50,SK-MEL-5 melanoma,15.9 µM
same,TGI,SK-MEL-5 melanoma,> 50 µM
same,GI50,SF-539 CNS,> 50 µM
same,TGI,SF-539 CNS,> 50 µM
same,GI50,A549 NSCLC,9.21 µM
same,TGI,A549 NSCLC,> 50 µM
same,GI50,SK-MEL-28 melanoma,> 50 µM
same,TGI,SK-MEL-28 melanoma,> 50 µM
same,GI50,SW-620 colon,> 50 µM
same,TGI,SW-620 colon,> 50 µM
same,GI50,RPMI-8226 leukemia,12.5 µM
same,TGI,RPMI-8226 leukemia,> 50 µM
same,GI50,HCT-116 colon,32.2 µM
same,TGI,HCT-116 colon,> 50 µM
same,GI50,K-562 leukemia,17.4 µM
same,TGI,K-562 leukemia,> 50 µM
same,GI50,UACC-62 melanoma,> 50 µM
same,TGI,UACC-62 melanoma,> 50 µM
same,GI50,HCT-15 colon,> 50 µM
same,TGI,HCT-15 colon,> 50 µM
same,GI50,TK-10 renal,22.8 µM
same,TGI,TK-10 renal,> 50 µM
same,GI50,MDA-MB-231 breast,15.7 µM
same,TGI,MDA-MB-231 breast,> 50 µM
same,GI50,NCI/ADR-RES ovarian,> 50 µM
same,TGI,NCI/ADR-RES ovarian,> 50 µM
same,GI50,SR leukemia,> 50 µM
same,TGI,SR leukemia,> 50 µM
same,GI50,NCI-H522 lung,> 50 µM
same,TGI,NCI-H522 lung,> 50 µM
same,GI50,SNB-19 CNS,> 50 µM
same,TGI,SNB-19 CNS,> 50 µM
same,GI50,SF-295 CNS,> 50 µM
same,TGI,SF-295 CNS,> 50 µM
same,GI50,HOP-92 NSCLC,45.6 µM
same,TGI,HOP-92 NSCLC,> 50 µM
same,GI50,IGROV1 ovarian,> 50 µM
same,TGI,IGROV1 ovarian,> 50 µM
same,GI50,ACHN renal,18.3 µM
same,TGI,ACHN renal,> 50 µM
same,GI50,OVCAR-5 ovarian,29.3 µM
same,TGI,OVCAR-5 ovarian,> 50 µM
same,GI50,SK-MEL-2 melanoma,> 50 µM
same,TGI,SK-MEL-2 melanoma,> 50 µM
same,GI50,NCI-H460 lung,42.5 µM
same,TGI,NCI-H460 lung,> 50 µM
same,GI50,KM12 colon,> 50 µM
same,TGI,KM12 colon,> 50 µM
same,GI50,SF-268 CNS,> 50 µM
same,TGI,SF-268 CNS,> 50 µM
same,GI50,COLO 205 colon,> 50 µM
same,TGI,COLO 205 colon,> 50 µM
same,GI50,NCI-H23 lung,20.6 µM
same,TGI,NCI-H23 lung,> 50 µM
same,GI50,MCF7 breast,> 50 µM
same,TGI,MCF7 breast,> 50 µM
same,GI50,DU-145 prostate,> 50 µM
same,TGI,DU-145 prostate,> 50 µM
same,GI50,UACC-257 melanoma,> 50 µM
same,TGI,UACC-257 melanoma,> 50 µM
same,GI50,BT-549 breast,> 50 µM
same,TGI,BT-549 breast,> 50 µM
same,GI50,EKVX NSCLC,25.7 µM
same,TGI,EKVX NSCLC,> 50 µM
same,GI50,U251 CNS,23.5 µM
same,TGI,U251 CNS,> 50 µM
same,GI50,CAKI-1 renal,25.6 µM
same,TGI,CAKI-1 renal,> 50 µM
same,GI50,HL-60(TB) leukemia,> 50 µM
same,TGI,HL-60(TB) leukemia,> 50 µM
same,GI50,786-0 renal,> 50 µM
same,TGI,786-0 renal,> 50 µM
same,GI50,SN12C renal,> 50 µM
same,TGI,SN12C renal,> 50 µM
Clc1ccc2sc(-n3ccc4ccccc43)nc2c1,TGI,HS 578T breast,> 100 µM
same,TGI,SK-OV-3 ovarian,> 100 µM
same,TGI,UO-31 renal,> 100 µM
same,TGI,HT29 colon,> 100 µM
same,TGI,PC-3 prostate,> 100 µM
same,TGI,OVCAR-8 ovarian,> 100 µM
same,TGI,LOX IMVI melanoma,> 100 µM
same,TGI,CCRF-CEM leukemia,> 100 µM
same,TGI,SK-MEL-5 melanoma,> 100 µM
same,TGI,SK-MEL-28 melanoma,> 100 µM
same,TGI,RXF 393 renal,69.3 µM
same,TGI,SW-620 colon,> 100 µM
same,TGI,K-562 leukemia,> 100 µM
same,TGI,UACC-62 melanoma,> 100 µM
same,TGI,HCT-15 colon,> 100 µM
same,TGI,HCC-2998 colon,> 100 µM
same,TGI,TK-10 renal,> 100 µM
same,TGI,NCI/ADR-RES ovarian,> 100 µM
same,TGI,SNB-19 CNS,> 100 µM
same,TGI,MOLT-4 leukemia,> 100 µM
same,TGI,IGROV1 ovarian,> 100 µM
same,TGI,ACHN renal,> 100 µM
same,TGI,OVCAR-5 ovarian,> 100 µM
same,TGI,NCI-H460 lung,> 100 µM
same,TGI,A498 renal,> 100 µM
same,TGI,SF-268 CNS,> 100 µM
same,TGI,NCI-H23 lung,> 100 µM
same,TGI,MCF7 breast,> 100 µM
same,TGI,SNB-75 CNS,> 100 µM
same,TGI,BT-549 breast,> 100 µM
same,TGI,EKVX NSCLC,> 100 µM
same,TGI,U251 CNS,> 100 µM
same,TGI,SN12C renal,> 100 µM

# Reference: PubChem BioAssay (NCI)
